The structures appear in SMILES notation. Where “and” joins values, the source holds several entries; their conditions need not be identical. Identical values can stand only once. Toxic doses and inconclusive results are not listed.

The experiment deals with BDF1 mice, P388 leukemia ip, median survival T/C. Kind of experiment: NCI In Vivo Anticancer Drug Screen. Data for tumor model P388 Leukemia (intraperitoneal) in B6D2F1 (BDF1) mice. The note with it: endpoint: median survival time, higher = longer survival. The method, boiled down:
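Each value expresses how treatment altered survival: treated-mouse outcome over vehicle-mouse outcome, both groups bearing the transplanted tumour.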

Where [1] appears, read: dose: 100.0 mg/kg/injection, schedule: Q04DX003 (ip), vehicle: saline.
[2] abbreviates: dose: 200.0 mg/kg/injection, schedule: Q04DX003 (ip), vehicle: saline.
[3] abbreviates: dose: 400.0 mg/kg/injection, schedule: Q04DX003 (ip), vehicle: saline.
Setting [4] is: dose: 50.0 mg/kg/injection, schedule: Q04DX003 (ip), vehicle: saline with Tween-80.
[5] abbreviates: dose: 100.0 mg/kg/injection, schedule: Q04DX003 (ip), vehicle: saline with Tween-80.
Where [6] appears, read: dose: 50.0 mg/kg/injection, schedule: Q01DX009 (ip), vehicle: saline with Tween-80.
Where [7] appears, read: dose: 100.0 mg/kg/injection, schedule: Q01DX009 (ip), vehicle: saline with Tween-80.
Where [8] appears, read: dose: 200.0 mg/kg/injection, schedule: Q01DX009 (ip), vehicle: saline with Tween-80.

For the compound `O=[N+]([O-])C=C(S)S`, the T/C was 101 % of control (dose: 12.5 mg/kg/injection, schedule: Q01DX009 (ip), vehicle: water); 124 % of control (dose: 25.0 mg/kg/injection, schedule: Q01DX009 (ip), vehicle: water); 117 % of control (dose: 50.0 mg/kg/injection, schedule: Q01DX009 (ip), vehicle: water); 108 % of control (dose: 100.0 mg/kg/injection, schedule: Q01DX009 (ip), vehicle: water).

Take `N#CCC(=O)N1Cc2cc3ccccc3nc2C1`: the T/C reads like this: (dose: 50.0 mg/kg/injection, schedule: Q01DX001 (ip), vehicle: saline sonified) 100 % of control; (dose: 100.0 mg/kg/injection, schedule: Q01DX001 (ip), vehicle: saline sonified) 100 % of control; (dose: 200.0 mg/kg/injection, schedule: Q01DX001 (ip), vehicle: saline sonified) 100 % of control.

With `CC(=O)NC1CCCC(O)C1` (centres undefined), the T/C by setting is: (dose: 100.0 mg/kg/injection, schedule: Q01DX009 (ip), vehicle: saline) 90 % of control; under setting [1], 100 % of control; (dose: 200.0 mg/kg/injection, schedule: Q01DX009 (ip), vehicle: saline) 95 % of control; under setting [2], 113 % of control; (dose: 400.0 mg/kg/injection, schedule: Q01DX009 (ip), vehicle: saline) 100 % of control; under setting [3], 104 % of control.

Turning to `Cc1cc2nc(N)sc2cc1C`, the T/C was 115 % of control (dose: 12.5 mg/kg/injection, schedule: Q01DX009 (ip), vehicle: other) and 105 % of control (dose: 25.0 mg/kg/injection, schedule: Q01DX009 (ip), vehicle: other).

Consider `CCOC(=O)c1c(NC(=O)C(F)(F)F)[nH]c(SSc2[nH]c(NC(=O)C(F)(F)F)c(C(=O)OCC)c2C(=O)OCC)c1C(=O)OCC`, for which the T/C by setting is: (dose: 1.0 mg/kg/injection, schedule: Q01DX009 (ip), vehicle: water) 111 % of control; (dose: 2.0 mg/kg/injection, schedule: Q01DX009 (ip), vehicle: water) 90 % of control; (dose: 4.0 mg/kg/injection, schedule: Q01DX009 (ip), vehicle: water) 104 % of control; (dose: 8.0 mg/kg/injection, schedule: Q01DX009 (ip), vehicle: water) 104 % of control; under setting [4], 106 % of control; under setting [5], 117 % of control. Moreover, the T/C (dose: 200.0 mg/kg/injection, schedule: Q04DX003 (ip), vehicle: saline with Tween-80) is 106 % of control.

For the compound `Cc1c2ccccc2cc2cccc[n+]12`, the T/C was 100 % of control (dose: 0.63 mg/kg/injection, schedule: Q01DX010 (ip), vehicle: saline); 100 % of control (dose: 1.25 mg/kg/injection, schedule: Q01DX010 (ip), vehicle: saline); 105 % of control and 120 % of control (dose: 2.5 mg/kg/injection, schedule: Q01DX010 (ip), vehicle: saline); 150 % of control (dose: 10.0 mg/kg/injection, schedule: Q01DX010 (ip), vehicle: saline); 150 % of control (dose: 40.0 mg/kg/injection, schedule: Q04DX003 (ip), vehicle: saline); 100 % of control (dose: 80.0 mg/kg/injection, schedule: Q04DX003 (ip), vehicle: saline).

Turning to `Nc1cc(=O)[nH]n1-c1ccccc1`, the T/C under setting [6] was 101 % of control, the T/C under setting [7] was 103 % of control and the T/C under setting [8] was 98 % of control.

Take `CCOC(=O)C(C)(C)CSC(C)(C)C(=O)OCC`: the T/C by setting is: under setting [1], 90 % of control; under setting [2], 90 % of control; under setting [3], 95 % of control.

`C=C1CCCCC1O` (centres undefined): the T/C is 101 % of control under setting [6], 95 % of control under setting [7] and 101 % of control under setting [8].

For the compound `COC(CC(C)CCCC(C)(C)O)OC` (centres undefined), the T/C is 110 % of control (dose: 50.0 mg/kg/injection, schedule: Q01DX009 (ip), vehicle: Klucel (hydroxypropylcellulose) (HPC)); 110 % of control (dose: 100.0 mg/kg/injection, schedule: Q01DX009 (ip), vehicle: Klucel (hydroxypropylcellulose) (HPC)); 100 % of control (dose: 100.0 mg/kg/injection, schedule: Q04DX003 (ip), vehicle: Klucel (hydroxypropylcellulose) (HPC)); 110 % of control (dose: 200.0 mg/kg/injection, schedule: Q01DX009 (ip), vehicle: Klucel (hydroxypropylcellulose) (HPC)); 112 % of control (dose: 200.0 mg/kg/injection, schedule: Q04DX003 (ip), vehicle: Klucel (hydroxypropylcellulose) (HPC)).

As for `COc1cc(/C=N\NC(=O)OC(C)(C)C)cc(OC)c1OC`, the T/C is 118 % of control under setting [6], 113 % of control under setting [7] and 86 % of control under setting [8].

As for `Cc1ccc(S(=O)(=O)NC(=O)NNC(=O)C(F)(F)F)cc1`, the T/C by setting is: under setting [6], 114 % of control; under setting [7], 96 % of control; under setting [8], 109 % of control.

Consider `CCCCCCCCCCCCNCc1ccc(O)cc1`, for which the T/C (dose: 25.0 mg/kg/injection, schedule: Q04DX003 (ip), vehicle: saline with Tween-80) is 104 % of control; the T/C under setting [4] is 100 % of control; the T/C under setting [5] is 108 % of control.

Consider `CC1CSCC(C)O1` (centres undefined), for which the T/C under setting [6] is 90 % of control; the T/C under setting [7] was 100 % of control; the T/C under setting [1] was 100 % of control; the T/C under setting [8] is 104 % of control; the T/C under setting [2] is 100 % of control; the T/C under setting [3] was 104 % of control.

As for `COc1ccc2cc1Oc1ccc(cc1)CC1=NCCc3cc(OC)c(OC)c(c31)Oc1cc3c(cc1OC)CCN(C)C3C2` (centres undefined), the T/C by setting is: (dose: 67.0 mg/kg/injection, schedule: Q01DX010 (ip), vehicle: carboxymethylcellulose (CMC)) 86 % of control; (dose: 100.0 mg/kg/injection, schedule: Q01DX010 (ip), vehicle: carboxymethylcellulose (CMC)) 86 % of control.

Consider `CNC(=O)C(C)(C)Br`, for which the T/C reads like this: under setting [2], 100 % of control; under setting [3], 90 % of control.

For the compound `O=C(O)c1ccc(S(=O)(=O)O)cc1C(=O)O`, the T/C runs as follows: (dose: 50.0 mg/kg/injection, schedule: Q04DX003 (ip), vehicle: saline) 104 % of control; under setting [1], 100 % of control; under setting [2], 91 % of control.

On to `C[Se]c1ncnc2c(C3OC(CO)C(O)C3O)[nH]nc12` (centres undefined), for which the T/C by setting is: (dose: 0.5 mg/kg/injection, schedule: Q01DX009 (ip), vehicle: saline with Tween-80) 118 % of control; (dose: 1.0 mg/kg/injection, schedule: Q01DX009 (ip), vehicle: saline with Tween-80) 90 % of control; (dose: 2.0 mg/kg/injection, schedule: Q01DX009 (ip), vehicle: saline with Tween-80) 109 % of control; (dose: 4.0 mg/kg/injection, schedule: Q01DX009 (ip), vehicle: saline with Tween-80) 100 % of control; (dose: 6.25 mg/kg/injection, schedule: Q01DX009 (ip), vehicle: saline) 114 % of control; (dose: 8.0 mg/kg/injection, schedule: Q01DX009 (ip), vehicle: saline with Tween-80) 90 % of control. For the same compound, the T/C was 98 % of control (dose: 12.5 mg/kg/injection, schedule: Q01DX009 (ip), vehicle: saline); 98 % of control (dose: 12.5 mg/kg/injection, schedule: Q04DX003 (ip), vehicle: saline); 92 % of control (dose: 25.0 mg/kg/injection, schedule: Q04DX003 (ip), vehicle: saline).

`CC(C)=CC(=O)OCC1CC[N+](C)(C)C1` (centres undefined): the T/C is 111 % of control (dose: 25.0 mg/kg/injection, schedule: Q01DX009 (ip), vehicle: saline) and 100 % of control (dose: 50.0 mg/kg/injection, schedule: Q01DX009 (ip), vehicle: saline).

As to `O=C1C(Cl)=C(N=Nc2c(Cl)c(O)c3ccccc3c2O)C(=O)c2ccccc21`, the T/C runs as follows: (dose: 3.12 mg/kg/injection, schedule: Q01DX009 (ip), vehicle: Klucel (hydroxypropylcellulose) (HPC)) 110 % of control; (dose: 6.25 mg/kg/injection, schedule: Q01DX009 (ip), vehicle: Klucel (hydroxypropylcellulose) (HPC)) 115 % of control; (dose: 12.5 mg/kg/injection, schedule: Q01DX009 (ip), vehicle: Klucel (hydroxypropylcellulose) (HPC)) 116 % of control; (dose: 25.0 mg/kg/injection, schedule: Q01DX009 (ip), vehicle: Klucel (hydroxypropylcellulose) (HPC)) 109 % of control.
